The results in this text go back to patent US7727980B2, “Tricyclic androgen receptor modulator compounds and methods” (priority 2001, dated 2010).

The target in assay [1] is T1, human AR (Homo sapiens, UniProt P10275).
T1 sequence (P10275 1-920): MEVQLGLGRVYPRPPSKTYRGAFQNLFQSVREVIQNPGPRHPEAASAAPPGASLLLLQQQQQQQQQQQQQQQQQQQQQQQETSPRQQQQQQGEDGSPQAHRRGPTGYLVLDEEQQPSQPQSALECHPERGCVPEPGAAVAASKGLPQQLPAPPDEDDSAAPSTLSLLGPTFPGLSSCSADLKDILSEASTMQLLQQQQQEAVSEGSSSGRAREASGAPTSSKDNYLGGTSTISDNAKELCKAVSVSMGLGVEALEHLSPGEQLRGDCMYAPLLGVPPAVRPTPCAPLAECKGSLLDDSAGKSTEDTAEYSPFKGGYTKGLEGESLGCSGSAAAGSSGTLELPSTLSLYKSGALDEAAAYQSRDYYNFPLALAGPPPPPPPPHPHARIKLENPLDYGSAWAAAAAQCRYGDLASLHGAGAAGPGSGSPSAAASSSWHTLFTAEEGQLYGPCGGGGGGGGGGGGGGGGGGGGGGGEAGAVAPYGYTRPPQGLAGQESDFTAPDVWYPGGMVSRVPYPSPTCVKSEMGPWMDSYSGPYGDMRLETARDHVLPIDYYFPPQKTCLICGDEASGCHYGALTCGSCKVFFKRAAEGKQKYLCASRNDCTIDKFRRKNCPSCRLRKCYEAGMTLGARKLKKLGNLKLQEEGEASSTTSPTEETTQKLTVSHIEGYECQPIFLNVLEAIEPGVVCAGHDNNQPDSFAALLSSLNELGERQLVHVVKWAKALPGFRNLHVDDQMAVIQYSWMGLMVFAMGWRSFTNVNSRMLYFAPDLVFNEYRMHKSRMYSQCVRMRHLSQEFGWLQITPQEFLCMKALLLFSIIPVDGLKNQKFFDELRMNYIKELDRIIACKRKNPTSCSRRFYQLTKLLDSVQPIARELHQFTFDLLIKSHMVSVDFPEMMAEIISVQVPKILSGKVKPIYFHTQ
Kind of assay: Co-transfection assay, AR agonist activity, CV-1 cells. The format is cell-based. Further details: expressed in transfected cells; host or cells: CV-1 cells (African green monkey kidney fibroblasts), transient transfection with pRShAR. Particulars: for EC50: AR Agonist CV-1 Cells Potency (nM), agonist potency or EC50; for AR Agonist CV-1 Cells Efficacy (%): percent maximal response relative to reference agonist DHT.

The target of assay [2] is T1, human AR. Kind of assay: AR whole cell competitive binding assay (3H-DHT), transfected COS-1 cells. Further details: expressed in transfected cells; transient transfection with pRShAR. The following applies: for pKi: read-out: AR Binding Ki; for Ki: AR Binding Ki (nM), COS-1 cells, 1 nM 3H-DHT, Cheng-Prusoff from IC50.
Assay [3] deals with T1, human AR. Kind of assay: Co-transfection assay, AR antagonist activity in presence of DHT, CV-1 cells. In kind it is cell-based. Further details: expressed in transfected cells; host or cells: CV-1 cells (African green monkey kidney fibroblasts), transient transfection with pRShAR. Particulars: for AR Antagonist CV-1 Cells Efficacy (%): percent maximal inhibition, DHT at its EC50 concentration; for IC50: AR Antagonist CV-1 Cells Potency (nM), antagonist potency or IC50, DHT at its EC50 concentration; for AR Antagonist CV-1 Cells Efficacy (%) / IC50: CV-1 cells.

pIC50, pKi: −log10 of the molar value. Like-named read-outs stand apart in the source and are kept apart here.

By EC50 is commonly meant the concentration at which the effect is half-maximal. One may read the pKi as the negative decadic logarithm of the Ki, by convention in mol/L. By pIC50 is commonly meant −log10 of the IC50, conventionally taken in molar units. With `CC1C(c2ccc(N(C)C)cc2)c2c(ccc3[nH]c(=O)cc(C(F)(F)F)c23)N1CC(F)(F)F` (racemic) [Compound 137, (±)-5,6-cis-Dihydro-5-(4-dimethylaminophenyl)-6-methyl-7-(2,2,2-trifluoroethyl)-4-trifluoromethyl-7H-pyrrolo[3,2-f]quinolin-2(1H)-one], on human AR [1], a half-maximal response (EC50) required 145 nM and the “AR Agonist CV-1 Cells Efficacy (%)” value is reported as 77%. Moreover, the pKi on human AR [2] was 6.97. For the same molecule, at human AR [3], the pIC50 is below 5.00; the “AR Antagonist CV-1 Cells Efficacy (%)” value was “na (na = not active (i.e. efficacy of <20 and potency of >10,000))”.
In general, Ki refers to the dissociation constant of the complex between target and ligand, obtained from inhibition or displacement. In general, IC50 refers to the concentration that gives 50% inhibition. Regarding `O=c1cc(C(F)(F)F)c2c3c(ccc2[nH]1)N(CC(F)(F)F)CC3c1ccccc1` (racemic) [Compound 141, (±)-5,6-Dihydro-5-phenyl-7-(2,2,2-trifluoroethyl)-4-trifluoromethyl-7H-pyrrolo[3,2-f]quinolin-2(1H)-one], at human AR [1], the midpoint of the response, the EC50, lay at 86 nM and the “AR Agonist CV-1 Cells Efficacy (%)” value was determined as 46%. Further, on human AR [2], the Ki worked out at 97 nM. Besides, on human AR [3], the IC50 stood at 34 nM and the “AR Antagonist CV-1 Cells Efficacy (%)” value is given as 44%.
In the same order, the values of `CCCC1C(CC)c2c(ccc3[nH]c(=O)cc(C(F)(F)F)c23)N1CC(F)(F)F` (racemic) [Compound 146, (±)-5,6-Dihydro-5-ethyl-6-propyl-7-(2,2,2-trifluoroethyl)-4-trifluoromethyl-7H-pyrrolo[3,2-f]quinolin-2(1H)-one] are 49 nM, 38%, 75 nM, 1 nM and 66%.
For `CCC1C(C)c2c(ccc3[nH]c(=O)ccc23)N1CC(F)(F)F` (racemic) [Compound 149, (±)-5,6-cis-Dihydro-5-methyl-6-ethyl-7-(2,2,2-trifluoroethyl)-7H-pyrrolo[3,2-f]quinolin-2(1H)-one], at human AR [1], the 50% effective concentration (EC50) was above 10000 nM; the “AR Agonist CV-1 Cells Efficacy (%)” value is “na (na = not active (i.e. efficacy of <20 and potency of >10,000))”. Further, the pKi on human AR [2] is 6.90. Besides, at human AR [3], the pIC50 was 7.60 and the “AR Antagonist CV-1 Cells Efficacy (%)” value was 81%.
Regarding `CCC1CCOc2c1ccc1[nH]c(=O)cc(C)c21` (racemic) [Compound 215, (±)-7,8-Dihydro-8-ethyl-4-methyl-6H-pyrano[2,3-f]quinolin-2(1H)-one], at human AR [1], the midpoint of the response, the EC50, lay at 2070 nM and the “AR Agonist CV-1 Cells Efficacy (%)” value is 28%. The Ki at human AR [2] worked out at 47 nM. Also, at human AR [3], the pIC50 is 7.77 and the “AR Antagonist CV-1 Cells Efficacy (%)” value is listed as 77%.
With `CCC1CCOc2cc3c(cc21)c(C(F)(F)F)c(F)c(=O)n3C` (racemic) [Compound 221, (±)-6,7-Dihydro-6-ethyl-3-fluoro-4-trifluoromethyl-1-methyl-8H-pyrano[3,2-g]quinolin-2(1H)-one], at human AR [1], the EC50 is above 10000 nM; the “AR Agonist CV-1 Cells Efficacy (%)” value was “na (na = not active (i.e. efficacy of <20 and potency of >10,000))”. Also, the affinity at human AR [2] corresponds to a Ki of 29 nM. Further, on human AR [3], the IC50 was 311 nM and the “AR Antagonist CV-1 Cells Efficacy (%)” value amounted to 78%.
On to `O=c1cc(C(F)(F)F)c2c3c(ccc2[nH]1)N(CC(F)(F)F)C1CCCC31` (single isomer, unassigned; (+)) [Compound 178, (+)-4c,5,6,7,7a(cis),8-Hexahydro-8-(2,2,2-trifluoroethyl)-4-trifluoromethylcyclopentano-[g]pyrrolo[3,2-f]quinolin-2(1H)-one], for which, on human AR [1], it took 21 nM to reach a half-maximal effect (EC50) and the “AR Agonist CV-1 Cells Efficacy (%)” value worked out at 24%. The molecule also gave a Ki on human AR [2] of 900 nM. In addition, at human AR [3], the IC50 worked out at 50 nM and the “AR Antagonist CV-1 Cells Efficacy (%)” value was determined as 48%.
Consider `O=c1cc(C(F)(F)F)c2c3c(ccc2[nH]1)N(CC(F)(F)F)C1CCCC31` (single isomer, unassigned; (-)) [Compound 179, (−)-4c,5,6,7,7a(cis),8-Hexahydro-8-(2,2,2-trifluoroethyl)-4-trifluoromethylcyclopentano-[g]pyrrolo[3,2-f]quinolin-2(1H)-one], for which, at human AR [1], the EC50 is 1.3 nM and the “AR Agonist CV-1 Cells Efficacy (%)” value came to 91%. Also, the affinity on human AR [2] corresponds to a Ki of 4.1 nM. Moreover, on human AR [3], the IC50 is above 10000 nM; the “AR Antagonist CV-1 Cells Efficacy (%)” value is “na (na = not active (i.e. efficacy of <20 and potency of >10,000))”.
Regarding `CC1(C)CCc2c(ccc3[nH]c(=O)cc(C(F)(F)F)c23)N1` [Compound 104, 5,6,7,8-Tetrahydro-7,7-dimethyl-4-trifluoromethylpyridino[3,2-f]quinolin-2(1H)-one], at human AR [1], the EC50 was 183 nM and the “AR Agonist CV-1 Cells Efficacy (%)” value was determined as 78%. In addition, the Ki at human AR [2] worked out at 15 nM. Also, on human AR [3], the IC50 worked out at 1.8 nM and the “AR Antagonist CV-1 Cells Efficacy (%)” value was 50%.
Turning to `CCC1(CC)CCc2c(ccc3[nH]c(=O)cc(C(F)(F)F)c23)N1` [Compound 105, 5,6,7,8-Tetrahydro-7,7-diethyl-4-trifluoromethylpyridino[3,2-f]quinolin-2(1H)-one], at human AR [1], the EC50 amounted to 32 nM and the “AR Agonist CV-1 Cells Efficacy (%)” value is 57%. Besides, at human AR [2], the Ki was 45 nM. At human AR [3], the IC50 is above 10000 nM; the “AR Antagonist CV-1 Cells Efficacy (%)” value was “na (na = not active (i.e. efficacy of <20 and potency of >10,000))”.
Consider `CC1(C)C=Cc2c(ccc3[nH]c(=O)cc(C(F)(F)F)c23)N1` [Compound 106, 7,8-Dihydro-7,7-dimethyl-4-trifluoromethylpyridino[3,2-f]quinolin-2(1H)-one], for which, on human AR [1], the EC50 came out at 12 nM and the “AR Agonist CV-1 Cells Efficacy (%)” value amounted to 108%. The Ki at human AR [2] came to 45 nM. Moreover, at human AR [3], the IC50 is above 10000 nM; the “AR Antagonist CV-1 Cells Efficacy (%)” value is “na (na = not active (i.e. efficacy of <20 and potency of >10,000))”.
Consider `CCN1c2ccc3[nH]c(=O)cc(C(F)(F)F)c3c2CCC1(C)C` [Compound 108, 8-Ethyl-5,6,7,8-tetrahydro-7,7-dimethyl-4-trifluoromethylpyridino[3,2-f]quinolin-2(1H)-one], for which, on human AR [1], the “AR Agonist CV-1 Cells Efficacy (%)” value came to 66%. Besides, the Ki at human AR [2] is 6.7 nM. In addition, at human AR [3], the IC50 was above 10000 nM; the “AR Antagonist CV-1 Cells Efficacy (%)” value was “na (na = not active (i.e. efficacy of <20 and potency of >10,000))”.
Take `CCCN1c2ccc3[nH]c(=O)cc(C(F)(F)F)c3c2CCC1(C)C` [Compound 109, 5,6,7,8-Tetrahydro-7,7-dimethyl-4-trifluoromethyl-8-propylpyridino[3,2-f]quinolin-2(1H)-one]: at human AR [1], the midpoint of the response, the EC50, lay at 13 nM and the “AR Agonist CV-1 Cells Efficacy (%)” value came out at 97%. For the same molecule, on human AR [2], the Ki was 1.2 nM. Besides, on human AR [3], the IC50 is above 10000 nM; the “AR Antagonist CV-1 Cells Efficacy (%)” value was “na (na = not active (i.e. efficacy of <20 and potency of >10,000))”.
Take `CC1(C)CCc2c(ccc3[nH]c(=O)cc(C(F)(F)F)c23)N1CC(F)(F)F` [Compound 110, 8-(2,2,2-Trifluoroethyl)-5,6,7,8-tetrahydro-7,7-dimethyl-4-trifluoromethyl-pyridino[3,2-f]quinolin-2(1H)-one]: at human AR [1], it took 21 nM to reach a half-maximal effect (EC50) and the “AR Agonist CV-1 Cells Efficacy (%)” value is 106%. Also, the Ki at human AR [2] stood at 21 nM. On human AR [3], the IC50 was above 10000 nM; the “AR Antagonist CV-1 Cells Efficacy (%)” value was “na (na = not active (i.e. efficacy of <20 and potency of >10,000))”.
Consider `O=c1cc(C(F)(F)F)c2c(ccc3c2c2ccccc2n3CC(F)(F)F)[nH]1` [Compound 158, 9-(2,2,2-Trifluoroethyl)-4-trifluoromethyl-9H-benzo[g]pyrrolo[3,2f]quinolin-2(1H)-one], for which, at human AR [1], a half-maximal effect (EC50) was put at 7.9 nM and the “AR Agonist CV-1 Cells Efficacy (%)” value is recorded as 59%. The molecule further displayed a Ki at human AR [2] of 7.1 nM. In addition, on human AR [3], the IC50 is above 10000 nM; the “AR Antagonist CV-1 Cells Efficacy (%)” value was “na (na = not active (i.e. efficacy of <20 and potency of >10,000))”.
